The source of these data is patent US20140296216A1, “PYRIMIDO[4,5-D]PYRIMIDINYL COMPOUNDS, PHARMACEUTICAL COMPOSITIONS AND USES THEREOF” (GUANGZHOU INSTITUTE OF BIOMEDICINE AND HEALTH, CHINESE …, priority 2011, published 2014).

For experiment [1], the system named is A431 (Human epidermal carcinoma, EGFR high expression). In words: Cell proliferation by MTT, A431. It is filed as cell-based. The conditions noted are these: A-431, read-out: A431 50% inhibitory concentration (IC50), 72 h.
A further experiment addresses T1, EGFR T790M kinase (Homo sapiens, UniProt P00533, T790M).
T1 construct: purchased invitrogen PV4803
In words: In vitro enzymatic activity assay (Z'-LYTE), EGFR T790M. It is filed as biochemical. The conditions noted are these: Z'-LYTE FRET peptide assay; read-out: EGFRT790M kinase activity (IC50). The text has this: (§1) In vitro enzymatic activity assay: using Z′-LYTE™ technology (detect fluorescence, coupled-enzyme format, based on the differential sensitivity of phosphorylated and non-phosphorylated peptides to proteolytic cleavage), based on FRET, using Z′ LYTE™ FRET peptide substrate, detect the activity of compounds against enzymatic. […] After one hour, site specific protease which can recognize and cleaves non-phosphorylated FRET-peptide. After another hour, using an excitation wavelength of 400 nm excites, then detect the […] at 445 nm and 520 nm.

A further experiment concerns the target EGFRWT (Homo sapiens, UniProt P00533). In words: In vitro enzymatic activity assay (Z'-LYTE), wild type EGFR. It is filed as biochemical. The conditions noted are these: Z'-LYTE FRET peptide assay; read-out: EGFRWT kinase activity (IC50).
Text: as §1

For experiment [2], the system named is NCI-H820 (lung cancer cells). In words: Cell proliferation by MTT, NCI-H820. It is filed as cell-based. The following applies: NCI-H820, read-out: NCI-H820 50% inhibitory concentration (IC50), 72 h.
For experiment [3], the system named is H1975 (lung cancer cells, EGFR L858R&T790M). In words: Cell proliferation by MTT, H1975. The format is cell-based. The following applies: Homo sapiens, NCI-H1975, read-out: H1975 50% inhibitory concentration (IC50), 72 h.
In the next experiment the target is EGFRL858R + T790M (Homo sapiens, UniProt P00533, L858R/T790M). In words: In vitro enzymatic activity assay (Z'-LYTE), EGFR L858R + T790M. It is filed as biochemical. The conditions noted are these: Z'-LYTE FRET peptide assay; read-out: EGFRL858R + T790M kinase activity (IC50).
Chain of EGFRL858R + T790M (P00533 25-1210 T790M/L858R): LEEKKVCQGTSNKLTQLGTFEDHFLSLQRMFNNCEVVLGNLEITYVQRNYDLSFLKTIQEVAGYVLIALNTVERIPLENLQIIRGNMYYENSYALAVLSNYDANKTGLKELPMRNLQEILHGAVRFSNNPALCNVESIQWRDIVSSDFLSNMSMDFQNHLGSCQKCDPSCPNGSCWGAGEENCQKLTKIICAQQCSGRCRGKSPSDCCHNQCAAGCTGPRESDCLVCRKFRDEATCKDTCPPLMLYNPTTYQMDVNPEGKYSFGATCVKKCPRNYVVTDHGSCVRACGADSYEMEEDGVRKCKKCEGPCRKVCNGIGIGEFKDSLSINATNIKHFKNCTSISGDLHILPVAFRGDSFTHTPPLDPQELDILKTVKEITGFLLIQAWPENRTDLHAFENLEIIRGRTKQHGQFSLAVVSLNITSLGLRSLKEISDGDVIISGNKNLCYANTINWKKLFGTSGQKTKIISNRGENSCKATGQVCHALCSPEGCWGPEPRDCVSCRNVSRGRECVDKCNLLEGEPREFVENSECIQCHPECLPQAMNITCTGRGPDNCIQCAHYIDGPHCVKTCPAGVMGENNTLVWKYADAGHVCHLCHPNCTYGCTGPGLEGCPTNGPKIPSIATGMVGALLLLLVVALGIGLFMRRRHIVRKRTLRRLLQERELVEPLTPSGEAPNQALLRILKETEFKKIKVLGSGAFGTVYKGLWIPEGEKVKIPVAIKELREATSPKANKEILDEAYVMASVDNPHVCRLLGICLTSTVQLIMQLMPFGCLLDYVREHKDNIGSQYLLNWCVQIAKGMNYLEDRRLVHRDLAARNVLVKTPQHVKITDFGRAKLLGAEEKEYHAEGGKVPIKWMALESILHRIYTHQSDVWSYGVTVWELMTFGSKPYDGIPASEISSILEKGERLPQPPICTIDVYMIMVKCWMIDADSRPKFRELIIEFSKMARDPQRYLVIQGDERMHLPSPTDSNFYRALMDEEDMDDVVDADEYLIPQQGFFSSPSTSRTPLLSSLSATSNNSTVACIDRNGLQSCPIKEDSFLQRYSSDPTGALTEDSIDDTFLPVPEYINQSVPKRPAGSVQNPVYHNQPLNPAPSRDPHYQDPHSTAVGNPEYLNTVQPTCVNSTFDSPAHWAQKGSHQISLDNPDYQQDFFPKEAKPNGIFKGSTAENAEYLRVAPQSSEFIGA
Text: as §1

Experiment [4] has as its system HCC827 (lung cancer cells, EGFR E746-A750 deletion). In words: Cell proliferation by MTT, HCC827. The conditions noted are these: Homo sapiens, HCC827, read-out: HCC827 50% inhibitory concentration (IC50), 72 h. The format is cell-based.
The target in a further experiment is EGFRL861Q (Homo sapiens, UniProt P00533, L861Q). In words: In vitro enzymatic activity assay (Z'-LYTE), EGFR L861Q. The conditions noted are these: Z'-LYTE FRET peptide assay; read-out: EGFRL861Q kinase activity (IC50). It is filed as biochemical.
Text: as §1

The target in a further experiment is EGFRL858R (Homo sapiens, UniProt P00533, L858R). In words: In vitro enzymatic activity assay (Z'-LYTE), EGFR L858R. It is filed as biochemical. The conditions noted are these: Z'-LYTE FRET peptide assay; read-out: EGFRL858R kinase activity (IC50).
Chain of EGFRL858R (P00533 25-1210 L858R): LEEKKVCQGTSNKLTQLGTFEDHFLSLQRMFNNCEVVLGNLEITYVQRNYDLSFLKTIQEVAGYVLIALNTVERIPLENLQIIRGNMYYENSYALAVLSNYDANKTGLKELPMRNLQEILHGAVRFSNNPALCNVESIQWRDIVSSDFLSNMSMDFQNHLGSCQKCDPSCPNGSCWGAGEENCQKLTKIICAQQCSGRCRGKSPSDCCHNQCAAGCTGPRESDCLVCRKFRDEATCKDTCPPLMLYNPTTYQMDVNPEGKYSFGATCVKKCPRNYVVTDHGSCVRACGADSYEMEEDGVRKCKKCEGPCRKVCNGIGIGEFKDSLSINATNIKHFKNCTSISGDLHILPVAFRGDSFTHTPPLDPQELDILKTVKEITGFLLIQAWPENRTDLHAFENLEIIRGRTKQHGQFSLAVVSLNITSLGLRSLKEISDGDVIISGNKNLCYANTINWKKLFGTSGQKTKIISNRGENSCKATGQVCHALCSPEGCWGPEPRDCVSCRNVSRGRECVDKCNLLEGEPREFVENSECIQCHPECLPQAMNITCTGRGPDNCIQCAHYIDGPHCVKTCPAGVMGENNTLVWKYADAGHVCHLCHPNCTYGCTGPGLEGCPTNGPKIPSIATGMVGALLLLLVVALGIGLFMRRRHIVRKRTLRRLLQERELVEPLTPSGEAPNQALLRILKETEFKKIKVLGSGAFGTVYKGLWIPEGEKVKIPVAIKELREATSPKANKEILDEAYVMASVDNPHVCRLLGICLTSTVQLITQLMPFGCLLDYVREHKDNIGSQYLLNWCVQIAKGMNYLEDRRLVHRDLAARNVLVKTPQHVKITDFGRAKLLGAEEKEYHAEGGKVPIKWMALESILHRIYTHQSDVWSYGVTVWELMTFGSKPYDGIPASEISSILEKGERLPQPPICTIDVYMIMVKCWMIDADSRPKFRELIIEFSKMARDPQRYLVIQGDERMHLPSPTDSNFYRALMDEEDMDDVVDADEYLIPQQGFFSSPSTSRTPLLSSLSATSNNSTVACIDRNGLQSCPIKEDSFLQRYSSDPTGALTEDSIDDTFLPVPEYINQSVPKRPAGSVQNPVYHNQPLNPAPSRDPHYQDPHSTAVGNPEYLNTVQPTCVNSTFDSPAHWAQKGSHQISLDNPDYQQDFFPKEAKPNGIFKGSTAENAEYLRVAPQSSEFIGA
Text: as §1

Chain of EGFRWT (P00533 25-1210): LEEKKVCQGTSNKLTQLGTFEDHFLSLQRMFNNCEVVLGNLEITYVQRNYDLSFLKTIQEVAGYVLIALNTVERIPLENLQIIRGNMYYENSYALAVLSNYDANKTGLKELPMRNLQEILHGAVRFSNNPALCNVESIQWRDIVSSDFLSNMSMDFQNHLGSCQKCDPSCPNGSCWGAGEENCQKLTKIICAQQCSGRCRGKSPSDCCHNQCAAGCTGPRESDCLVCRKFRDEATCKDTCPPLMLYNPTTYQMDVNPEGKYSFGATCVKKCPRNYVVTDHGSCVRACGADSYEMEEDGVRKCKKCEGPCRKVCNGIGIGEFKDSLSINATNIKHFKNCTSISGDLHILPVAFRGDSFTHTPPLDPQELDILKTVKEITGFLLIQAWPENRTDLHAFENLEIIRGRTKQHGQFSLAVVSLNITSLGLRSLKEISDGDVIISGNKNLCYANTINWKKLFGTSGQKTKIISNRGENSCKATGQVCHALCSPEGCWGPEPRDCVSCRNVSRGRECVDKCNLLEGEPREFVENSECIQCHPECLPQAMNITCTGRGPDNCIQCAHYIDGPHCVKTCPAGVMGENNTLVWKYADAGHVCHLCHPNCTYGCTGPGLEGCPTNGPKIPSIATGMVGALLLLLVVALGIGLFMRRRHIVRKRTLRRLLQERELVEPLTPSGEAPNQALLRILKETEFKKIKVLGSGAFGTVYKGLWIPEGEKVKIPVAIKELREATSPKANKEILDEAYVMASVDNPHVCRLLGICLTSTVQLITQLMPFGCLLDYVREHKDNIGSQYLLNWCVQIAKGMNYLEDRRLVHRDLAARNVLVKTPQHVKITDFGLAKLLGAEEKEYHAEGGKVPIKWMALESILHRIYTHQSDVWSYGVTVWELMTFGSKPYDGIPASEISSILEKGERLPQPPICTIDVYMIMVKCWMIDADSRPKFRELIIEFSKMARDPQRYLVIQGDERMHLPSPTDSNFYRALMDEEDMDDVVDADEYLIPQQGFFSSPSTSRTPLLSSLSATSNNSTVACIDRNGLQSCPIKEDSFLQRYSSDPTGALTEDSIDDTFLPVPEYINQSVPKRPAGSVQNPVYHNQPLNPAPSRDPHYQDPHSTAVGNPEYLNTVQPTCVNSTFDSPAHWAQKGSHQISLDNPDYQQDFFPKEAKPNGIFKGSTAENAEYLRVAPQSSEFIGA
T1 sequence (P00533 25-1210 T790M): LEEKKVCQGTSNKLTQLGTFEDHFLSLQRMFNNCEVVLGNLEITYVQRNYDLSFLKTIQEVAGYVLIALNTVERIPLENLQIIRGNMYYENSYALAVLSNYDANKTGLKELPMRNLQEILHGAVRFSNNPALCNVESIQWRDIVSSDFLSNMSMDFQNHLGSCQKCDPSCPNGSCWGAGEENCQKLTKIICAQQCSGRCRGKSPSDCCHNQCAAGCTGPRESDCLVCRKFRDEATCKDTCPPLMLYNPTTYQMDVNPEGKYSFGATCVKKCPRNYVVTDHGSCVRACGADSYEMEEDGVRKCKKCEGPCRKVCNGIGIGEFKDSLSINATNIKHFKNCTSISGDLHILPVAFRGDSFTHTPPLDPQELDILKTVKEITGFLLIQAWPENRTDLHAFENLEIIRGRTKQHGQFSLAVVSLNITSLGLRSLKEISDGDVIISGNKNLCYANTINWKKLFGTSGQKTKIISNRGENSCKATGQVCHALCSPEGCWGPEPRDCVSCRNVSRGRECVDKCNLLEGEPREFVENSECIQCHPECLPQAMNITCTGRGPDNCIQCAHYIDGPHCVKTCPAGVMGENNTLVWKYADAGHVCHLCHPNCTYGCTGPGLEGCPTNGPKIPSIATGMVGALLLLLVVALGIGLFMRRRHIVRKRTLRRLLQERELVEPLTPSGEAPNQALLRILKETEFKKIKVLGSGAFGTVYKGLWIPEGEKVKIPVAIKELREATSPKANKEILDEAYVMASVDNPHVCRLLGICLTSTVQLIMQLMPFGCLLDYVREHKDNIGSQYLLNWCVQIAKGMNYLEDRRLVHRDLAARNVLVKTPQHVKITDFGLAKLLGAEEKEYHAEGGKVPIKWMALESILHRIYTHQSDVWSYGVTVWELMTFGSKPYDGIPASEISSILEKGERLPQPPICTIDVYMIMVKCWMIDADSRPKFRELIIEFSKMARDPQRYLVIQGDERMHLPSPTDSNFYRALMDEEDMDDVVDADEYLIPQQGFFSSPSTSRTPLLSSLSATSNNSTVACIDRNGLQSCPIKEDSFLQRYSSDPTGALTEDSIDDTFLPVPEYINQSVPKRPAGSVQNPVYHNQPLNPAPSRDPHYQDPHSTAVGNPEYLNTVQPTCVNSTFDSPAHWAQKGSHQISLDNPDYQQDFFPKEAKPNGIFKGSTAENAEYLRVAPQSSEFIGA

As to `C=CC(=O)Nc1cccc(N2C(=O)N(C)Cc3cnc(Nc4ccc(N5CCCC5)cc4OC)nc32)c1` [C-EGF12, N-(3-(7-(2-methoxy-4-(pyrrolidin-1-yl)phenylamino)-3-methyl-2-oxo-3,4-dihydropyrimido[4,5-d]pyrimidin-1(2H)-yl)phenyl)acrylamide], the IC50 in experiment [1] was 8160 nM; on EGFR T790M kinase it was 100 to 1000 nM; at EGFRWT, 10 to 100 nM; in experiment [2], 35600 nM; in experiment [3], 1530 nM; on EGFRL858R + T790M, 10 to 100 nM. For the same compound, the figures for the IC50 (in experiment [4]; at EGFRL861Q; on EGFRL858R) were 409 nM, no more than 10 nM and 10 to 100 nM, respectively.
Take `C=CC(=O)Nc1cccc(N2C(=O)N(C)Cc3cnc(Nc4ccc(N5CCC(N(C)C)CC5)cc4OC)nc32)c1` [C-EGF13, N-(3-(7-(4-(4-(dimethylamino)piperidin-1-yl)-2-methoxyphenylamino)-3-methyl-2-oxo-3,4-dihydropyrimido[4,5-d]pyrimidin-1(2H)-yl)phenyl)acrylamide]: the IC50 in experiment [1] is greater than 100000 nM; on EGFR T790M kinase, no more than 10 nM; at EGFRWT, no more than 10 nM; in experiment [2], greater than 100000 nM; in [3], 568 nM; at EGFRL858R + T790M it was no more than 10 nM. Also, the IC50 in experiment [4] is 198 nM; at EGFRL861Q, no more than 10 nM; on EGFRL858R it was no more than 10 nM.
For `C=CC(=O)Nc1cccc(N2C(=O)N(C)Cc3cnc(Nc4ccc(N5CCC(N6CCN(C)CC6)CC5)cc4OC)nc32)c1` [C-EGF14, N-(3-(7-(2-methoxy-4-(4-(4-methylpiperazin-1-yl)piperidin-1-yl)phenylamino)-3-methyl-2-oxo-3,4-dihydropyrimido[4,5-d]pyrimidin-1(2H)-yl)phenyl)acrylamide], the IC50 was greater than 100000 nM in experiment [1]; 10 to 100 nM at EGFR T790M kinase; no more than 10 nM on EGFRWT; greater than 100000 nM in [2]; 1220 nM in experiment [3]; 10 to 100 nM at EGFRL858R + T790M. Also, the values for the IC50 (in experiment [4]; at EGFRL861Q; on EGFRL858R) were 188 nM, no more than 10 nM and no more than 10 nM, respectively.
On to `C=CC(=O)Nc1cccc(N2C(=O)N(C)Cc3cnc(Nc4ccc(N5CCCN(C)CC5)cc4OC)nc32)c1` [C-EGF17, N-(3-(7-(2-methoxy-4-(4-methyl-1,4-diazepan-1-yl)phenylamino)-3-methyl-2-oxo-3,4-dihydropyrimido[4,5-d]pyrimidin-1(2H)-yl)phenyl)acrylamide], for which the IC50 was 11100 nM in experiment [1]; no more than 10 nM at EGFR T790M kinase; no more than 10 nM on EGFRWT; greater than 100000 nM in experiment [2]; 710 nM in experiment [3]; no more than 10 nM at EGFRL858R + T790M. Also, the IC50 in experiment [4] is 62 nM; at EGFRL861Q, no more than 10 nM; on EGFRL858R, no more than 10 nM.
For `C=CC(=O)Nc1cccc(N2C(=O)N(C)Cc3cnc(Nc4ccc(N5CCN(C)CC5)cc4F)nc32)c1` [C-EGF18, N-(3-(7-(2-fluoro-4-(4-methylpiperazin-1-yl)phenylamino)-3-methyl-2-oxo-3,4-dihydropyrimido[4,5-d]pyrimidin-1(2H)-yl)phenyl)acrylamide], the IC50 in [1] is greater than 100000 nM; at EGFR T790M kinase, no less than 10000 nM; at EGFRWT, 1000 to 10000 nM; in [2], 4850 nM; in [3], greater than 100000 nM; at EGFRL858R + T790M it was 1000 to 10000 nM. Besides, the IC50 is greater than 100000 nM in experiment [4], no less than 1000 nM on EGFRL861Q and no less than 10000 nM at EGFRL858R.
For `C=CC(=O)Nc1cccc(N2C(=O)N(C)Cc3cnc(N4CCN(C)CC4)nc32)c1` [C-EGF19, N-(3-(3-methyl-7-(4-methylpiperazin-1-yl)-2-oxo-3,4-dihydropyrimido[4,5-d]pyrimidin-1(2H)-yl)phenyl)acrylamide], the IC50 in [1] is greater than 100000 nM; at EGFR T790M kinase it was no less than 10000 nM; at EGFRWT, no less than 10000 nM; in experiment [2] it was 95700 nM; in experiment [3] it was 12100 nM; at EGFRL858R + T790M, 1000 to 10000 nM. For the same compound, the IC50 in experiment [4] is greater than 100000 nM; on EGFRL861Q it was 100 to 1000 nM; at EGFRL858R, no less than 10000 nM.
In the case of `C=CC(=O)Nc1cccc(N2C(=O)N(C)Cc3cnc(NC)nc32)c1` [C-EGF21, N-(3-(3-methyl-7-(methylamino)-2-oxo-3,4-dihydropyrimido[4,5-d]pyrimidin-1 (2H)-yl)phenyl)acrylamide], the IC50 in experiment [1] was greater than 100000 nM; at EGFR T790M kinase it was no less than 10000 nM; on EGFRWT it was 100 to 1000 nM; in [2] it was greater than 100000 nM; in experiment [3], 22500 nM; on EGFRL858R + T790M it was 100 to 1000 nM. The IC50 in experiment [4] is 11900 nM; on EGFRL861Q it was 1000 to 10000 nM; at EGFRL858R it was 100 to 1000 nM.
For the compound `C=CC(=O)Nc1cccc(N2C(=O)N(C)Cc3cnc(Nc4ccc(OCCOC)cc4OC)nc32)c1` [C-EGF22, N-(3-(7-(2-methoxy-4-(2-methoxyethoxy)phenylamino)-3-methyl-2-oxo-3,4-dihydropyrimido[4,5-d]pyrimidin-1(2H)-yl)phenyl)acrylamide], the IC50 in [1] was 24900 nM; on EGFR T790M kinase, 10 to 100 nM; at EGFRWT it was no more than 10 nM; in [2], greater than 100000 nM; in [3], 1070 nM; on EGFRL858R + T790M it was 10 to 100 nM. In addition, the IC50 in [4] was 495 nM; on EGFRL861Q, no more than 10 nM; at EGFRL858R, no more than 10 nM.
On to `C=CC(=O)Nc1cccc(N2C(=O)N(C)Cc3cnc(Nc4ccc(N(C)C)cc4OC)nc32)c1` [C-EGF23, N-(3-(7-(4-(dimethylamino)-2-methoxyphenylamino)-3-methyl-2-oxo-3,4-dihydropyrimido[4,5-d]pyrimidin-1(2H)-yl)phenyl)acrylamide], for which the IC50 in experiment [1] was 28200 nM; at EGFR T790M kinase it was 10 to 100 nM; on EGFRWT it was no more than 10 nM; in [2], greater than 100000 nM; in experiment [3], 3860 nM; at EGFRL858R + T790M it was 10 to 100 nM. Besides, the IC50 in experiment [4] is 616 nM; at EGFRL861Q, no more than 10 nM; on EGFRL858R, no more than 10 nM.
For `C=CC(=O)Nc1cccc(N2C(=O)N(C(C)C)Cc3cnc(Nc4ccc(N5CCN(C)CC5)cc4OC)nc32)c1` [C-EGF24, N-(3-(3-isopropyl-7-(2-methoxy-4-(4-methylpiperazin-1-yl)phenylamino)-2-oxo-3,4-dihydropyrimido[4,5-d]pyrimidin-1(2H)-yl)phenyl)acrylamide], the IC50 in experiment [1] is 24700 nM; at EGFR T790M kinase, no more than 10 nM; at EGFRWT it was no more than 10 nM; in experiment [2] it was greater than 100000 nM; in experiment [3], 129 nM; at EGFRL858R + T790M, no more than 10 nM. Further, the IC50 in [4] was 0.2 nM; on EGFRL861Q, no more than 10 nM; at EGFRL858R, no more than 10 nM.
`C=CC(=O)Nc1cccc(N2C(=O)N(c3ccc(OC)cc3)Cc3cnc(Nc4ccc(N5CCN(C)CC5)cc4OC)nc32)c1` [C-EGF25, N-(3-(7-(2-methoxy-4-(4-methylpiperazin-1-yl)phenylamino)-3-(4-methoxyphenyl)-2-oxo-3,4-dihydropyrimido[4,5-d]pyrimidin-1(2H)-yl)phenyl)acrylamide]: the IC50 in [1] is 1230 nM; at EGFR T790M kinase, no more than 10 nM; on EGFRWT, no more than 10 nM; in [2], 54600 nM; in experiment [3], 501 nM; on EGFRL858R + T790M, no more than 10 nM. The IC50 was 198 nM in [4], no more than 10 nM on EGFRL861Q and no more than 10 nM on EGFRL858R.
As to `C=CC(=O)Nc1cccc(N2C(=O)N(C)Cc3cnc(Nc4ccc(N5CCCCC5)cc4)nc32)c1` [Compound X002, N-(3-(3-methyl-2-oxo-7-(4-(piperidin-1-yl)phenylamino)-3,4-dihydropyrimido[4,5-d]pyrimidin-1(2H)-yl)phenyl)acrylamide], the IC50 in experiment [1] is 8030 nM; on EGFR T790M kinase it was no more than 10 nM; on EGFRWT it was no more than 10 nM; in experiment [2] it was greater than 100000 nM; in experiment [3], 420 nM; at EGFRL858R + T790M, no more than 10 nM. Further, the IC50 in experiment [4] is 154 nM; on EGFRL861Q it was no more than 10 nM; on EGFRL858R, no more than 10 nM.
As for `C=CC(=O)Nc1cccc(N2C(=O)N(C)Cc3cnc(Nc4ccc(N5CCC(N6CCN(C)CC6)CC5)cc4)nc32)c1` [Compound X003, N-(3-(3-methyl-7-(4-(4-(4-methylpiperazin-1-yl)piperidin-1-yl)phenylamino)-2-oxo-3,4-dihydropyrimido[4,5-d]pyrimidin-1(2H)-yl)phenyl)acrylamide], the IC50 in experiment [1] was 3440 nM; at EGFR T790M kinase, no more than 10 nM; at EGFRWT it was no more than 10 nM; in experiment [2], greater than 100000 nM; in experiment [3], 179 nM; on EGFRL858R + T790M, no more than 10 nM. Further, the IC50 in experiment [4] was 125 nM; at EGFRL861Q it was no more than 10 nM; at EGFRL858R, no more than 10 nM.
